Measured values reported in patent US9815796B2 (Merck Sharp & Dohme Corp., priority 2013, dated 2017).
Like-named read-outs stand apart in the source and are kept apart here.

Assays:
Rhesus PDE2A3 = Rhesus PDE2A3 (Macaca mulatta, UniProt B3VTJ2); test: PDE2 fluorescence polarization (IMAP FP) inhibition assay, rhesus enzyme; type: biochemical, rhesus macaque
Summary of the method: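 IMAP FP (mP from parallel and perpendicular fluorescence against substrate-only control) was read ≥1 h after adding binding reagent. The preceding 60 min room-temperature reaction contained FAM-cAMP (50 nM) and cGMP (1 uM) in pH 7.2 Tris buffer with MgCl2 and DTT. Enzyme was supernatant of sonicated AD293 cells expressing rhesus PDE2A3; compounds were 3-fold titrated, DMSO 1% final.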

human PDE2A1 = human PDE2A1 (Homo sapiens (Human), UniProt O00408); test: IMAP FP PDE selectivity panel, human PDE2A1; type: biochemical
Summary of the method: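 IMAP FP format: substrate 50 nM FAM-cAMP plus 1000 nM cGMP, enzyme (insect-cell GST-tagged human PDE2A1) at ~20% conversion, 60 min reaction at room temperature. Apparent inhibition constants calculated from parallel/perpendicular fluorescence with KM 10,000 nM.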

[1] = Rhesus PDE2, Lab B, read-out: Rhesus PDE2 Ki (nM) - Lab B
[2] = Human PDE2, Lab B, read-out: Human PDE2 Ki (nM) - Lab B
[3] = Rhesus PDE2, Lab A, read-out: Rhesus PDE2 Ki (nM) - Lab A
[4] = Human PDE2, Lab A, read-out: Human PDE2 Ki (nM) - Lab A

Sequence of Rhesus PDE2A3 (B3VTJ2 1-941): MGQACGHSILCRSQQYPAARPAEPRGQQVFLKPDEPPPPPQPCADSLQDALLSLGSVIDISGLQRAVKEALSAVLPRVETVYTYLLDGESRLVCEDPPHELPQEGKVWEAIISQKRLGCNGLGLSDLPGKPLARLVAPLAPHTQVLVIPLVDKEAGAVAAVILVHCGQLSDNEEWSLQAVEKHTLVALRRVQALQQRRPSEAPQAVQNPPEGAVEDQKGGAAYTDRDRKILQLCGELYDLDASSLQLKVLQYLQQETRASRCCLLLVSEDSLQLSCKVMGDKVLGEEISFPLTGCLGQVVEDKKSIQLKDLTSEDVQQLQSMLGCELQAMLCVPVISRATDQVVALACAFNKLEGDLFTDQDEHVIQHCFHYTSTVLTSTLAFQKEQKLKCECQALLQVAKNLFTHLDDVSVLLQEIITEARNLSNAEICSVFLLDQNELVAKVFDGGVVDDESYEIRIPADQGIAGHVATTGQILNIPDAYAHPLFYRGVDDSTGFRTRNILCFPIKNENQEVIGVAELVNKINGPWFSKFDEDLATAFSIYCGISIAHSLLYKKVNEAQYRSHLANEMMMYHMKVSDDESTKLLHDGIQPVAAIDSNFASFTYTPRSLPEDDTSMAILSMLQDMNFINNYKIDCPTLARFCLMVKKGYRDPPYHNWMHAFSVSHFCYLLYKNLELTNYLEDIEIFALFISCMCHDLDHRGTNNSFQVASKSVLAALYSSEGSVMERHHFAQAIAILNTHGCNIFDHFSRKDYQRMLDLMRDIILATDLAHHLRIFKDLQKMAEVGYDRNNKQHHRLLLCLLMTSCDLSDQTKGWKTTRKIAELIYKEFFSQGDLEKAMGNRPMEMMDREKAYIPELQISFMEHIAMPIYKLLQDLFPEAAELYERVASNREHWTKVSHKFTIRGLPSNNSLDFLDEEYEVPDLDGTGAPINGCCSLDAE
Sequence of human PDE2A1 (O00408 other isoform, or with tags, fused parts or gaps): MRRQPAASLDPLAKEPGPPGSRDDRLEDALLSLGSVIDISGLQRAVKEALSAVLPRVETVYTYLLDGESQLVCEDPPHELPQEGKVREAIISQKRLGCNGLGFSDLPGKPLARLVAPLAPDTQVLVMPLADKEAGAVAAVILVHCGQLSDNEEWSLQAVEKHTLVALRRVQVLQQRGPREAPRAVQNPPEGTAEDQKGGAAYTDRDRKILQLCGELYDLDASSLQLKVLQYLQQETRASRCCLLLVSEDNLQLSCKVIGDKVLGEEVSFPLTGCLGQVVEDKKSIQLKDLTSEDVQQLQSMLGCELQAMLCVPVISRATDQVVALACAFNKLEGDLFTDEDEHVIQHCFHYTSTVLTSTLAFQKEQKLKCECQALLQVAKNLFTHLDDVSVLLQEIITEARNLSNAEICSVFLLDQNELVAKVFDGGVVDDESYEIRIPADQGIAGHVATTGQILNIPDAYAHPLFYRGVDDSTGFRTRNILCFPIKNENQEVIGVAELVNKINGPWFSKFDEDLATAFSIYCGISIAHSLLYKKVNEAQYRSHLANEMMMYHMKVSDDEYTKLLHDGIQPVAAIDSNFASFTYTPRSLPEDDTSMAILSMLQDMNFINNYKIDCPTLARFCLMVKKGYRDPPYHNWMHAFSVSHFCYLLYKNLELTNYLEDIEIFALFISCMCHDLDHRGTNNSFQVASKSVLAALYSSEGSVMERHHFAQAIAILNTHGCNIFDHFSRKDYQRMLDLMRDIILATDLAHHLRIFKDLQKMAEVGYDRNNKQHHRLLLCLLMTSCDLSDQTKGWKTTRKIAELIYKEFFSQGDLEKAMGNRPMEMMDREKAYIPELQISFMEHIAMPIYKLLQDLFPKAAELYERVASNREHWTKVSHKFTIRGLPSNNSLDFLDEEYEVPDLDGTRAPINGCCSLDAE

| Structure (SMILES) | Ki (Rhesus PDE2A3; [1]) | Ki (human PDE2A1; [2]) | Ki (Rhesus PDE2A3; [3]) | Ki (human PDE2A1; [4]) |
| --- | --- | --- | --- | --- |
| COCc1nc(C(=O)N[C@H](C)c2ccc(SC(F)(F)F)cc2)cc(=O)[nH]1 [Example 123, 2-(methoxymethyl)-6-oxo-N-[(1R)-1-{4-[(trifluoromethyl)sulfanyl]phenyl}ethyl]-1,6-dihydropyrimidine-4-carboxamide] | 31 nM | – | 39 nM | ~8.2 nM |
| Cc1nc(C(=O)N[C@@H](c2ccc(OC(F)(F)F)cc2)C(C)C)cc(=O)[nH]1 [Example 32, 2-methyl-N-{(1R)-2-methyl-1-[4-(trifluoromethoxy)phenyl]propyl}-6-oxo-1,6-dihydropyrimidine-4-carboxamide] | – | – | 11 nM | 5.1 nM |
| CC[C@@H](NC(=O)c1cc(=O)[nH]c(C2CC2)n1)c1ccc(OC(F)(F)F)cc1 [Example 225, 2-cyclopropyl-6-oxo-N-{(1R)-1-[4-(trifluoromethoxy)phenyl]propyl}-1,6-dihydropyrimidine-4-carboxamide] | – | – | 8.3 nM | 4.6 nM |
| Cc1nc(C(=O)N[C@@H](c2ccc(S(F)(F)(F)(F)F)cc2)C(C)C)cc(=O)[nH]1 [Example 52, 2-methyl-N-{(1R)-2-methyl-1-[4-(pentafluoro-λ^6-sulfanyl)phenyl]propyl}-6-oxo-1,6-dihydropyrimidine-4-carboxamide] | 6 nM | 6.4 nM | 5.1 nM | – |
| O=C(N[C@@H](c1ccc(OC(F)(F)F)cc1)C1CC1)c1cc(=O)[nH]c(C2CC2)n1 [Example 211, 2-cyclopropyl-N-{(R)-cyclopropyl[4-(trifluoromethoxy)phenyl]methyl}-6-oxo-1,6-dihydropyrimidine-4-carboxamide] | – | – | 7.1 nM | 2.5 nM |
| O=C(NC1(c2ccc(SC(F)(F)F)cc2)CC1)c1cc(=O)[nH]c(-c2ncccn2)n1 [Example 77, 6-oxo-N-(1-{4-[(trifluoromethyl)sulfanyl]phenyl}cyclopropyl)-1,6-dihydro-2,2′-bipyrimidine-4-carboxamide] | 14 nM | 21 nM | 19 nM | – |
| CC(NC(=O)c1cc(=O)[nH]c(C2CC2)n1)c1ccc(C2CC2)cc1 (stereo not shown) [Example 195, 2-cyclopropyl-N-[1-(4-cyclopropylphenyl)ethyl]-6-oxo-1,6-dihydropyrimidine-4-carboxamide] | – | – | 33 nM | 18 nM |
| CC(C)(NC(=O)c1cc(=O)[nH]c(-c2ccccc2)n1)c1ccc(SC(F)(F)F)cc1 [Example 186, N-(1-methyl-1-{4-[(trifluoromethyl)sulfanyl]phenyl}ethyl)-6-oxo-2-phenyl-1,6-dihydropyrimidine-4-carboxamide] | – | – | 60 nM | 62 nM |
| CC(C)[C@@H](NC(=O)c1cc(=O)[nH]c(-c2ncccn2)n1)c1ccc(OC(F)(F)F)cc1 [Example 75, N-{(1R)-2-methyl-1-[4-(trifluoromethoxy)phenyl]propyl}-6-oxo-1,6-dihydro-2,2′-bipyrimidine-4-carboxamide] | – | – | 5.1 nM | 3 nM |
| CC(C)[C@@H](NC(=O)c1cc(=O)[nH]c(-c2ncccn2)n1)c1ccc(SC(F)(F)F)c(F)c1 [Example 245, N-[(1R)-1-{3-fluoro-4-[(trifluoromethyl)sulfanyl]phenyl}-2-methylpropyl]-6-oxo-1,6-dihydro-2,2′-bipyrimidine-4-carboxamide] | 1.3 nM | 1.3 nM | 1.4 nM | – |
| C[C@@H](NC(=O)c1cc(=O)[nH]c(C2CC2)n1)c1ccc(C(F)(F)F)c(Cl)c1 [Example 232, N-{(1R)-1-[3-chloro-4-(trifluoromethyl)phenyl]ethyl}-2-cyclopropyl-6-oxo-1,6-dihydropyrimidine-4-carboxamide] | – | – | 29 nM | 17 nM |

Second part, the molecule after the results:

| Ki (Rhesus PDE2A3; [1]) | Ki (human PDE2A1; [2]) | Ki (Rhesus PDE2A3; [3]) | Ki (human PDE2A1; [4]) | Structure (SMILES) |
| --- | --- | --- | --- | --- |
| 4.5 nM | 3.6 nM | – | – | CC(C)[C@@H](NC(=O)c1cc(=O)[nH]c(-c2ccccc2)n1)c1ccc(SC(F)(F)F)c(F)c1 [Example 407, N-[(1R)-1-{3-fluoro-4-[(trifluoromethyl)sulfanyl]phenyl}-2-methylpropyl]-6-oxo-2-phenyl-1,6-dihydropyrimidine-4-carboxamide] |
| 5.2 nM | 5.8 nM | – | – | C[C@@H](NC(=O)c1cc(=O)[nH]c(-c2ccccc2)n1)c1ccc(S(F)(F)(F)(F)F)cc1 [Example 401, 6-oxo-N-{(1R)-1-[4-(pentafluoro-λ^6-sulfanyl)phenyl]ethyl}-2-phenyl-1,6-dihydropyrimidine-4-carboxamide] |
| 15 nM | 19 nM | – | – | Cc1nc(C(=O)N[C@H](C)c2ccc(C3CC3)c(F)c2)cc(=O)[nH]1 [Example 620, N-[(1R)-1-(4-cyclopropyl-3-fluorophenyl)ethyl]-2-methyl-6-oxo-1,6-dihydropyrimidine-4-carboxamide] |
| – | – | 1420 nM | 565 nM | Cc1nc(C(=O)NC(C(=O)N(C)C)c2ccc(C(F)(F)F)cc2)cc(=O)[nH]1 (stereo not shown) [Example 329, N-{2-(dimethylamino)-2-oxo-1-[4-(trifluoromethyl)phenyl]ethyl}-2-methyl-6-oxo-1,6-dihydropyrimidine-4-carboxamide] |
| 1.5 nM | 1.5 nM | – | – | COc1ccc(Cc2nc(C(=O)N[C@@H](c3ccc(S(F)(F)(F)(F)F)cc3)C(C)C)cc(=O)[nH]2)cc1 [Example 471, 2-(4-methoxybenzyl)-N-[(1R)-2-methyl-1-[4-(pentafluoro-λ^6-sulfanyl)phenyl]propyl}-6-oxo-1,6-dihydropyrimidine-4-carboxamide] |
| 5.1 nM | 3.7 nM | – | – | Cc1nc(C(=O)NC(c2ccc(C3(C)CC3)c(F)c2)C(C)(C)C)cc(=O)[nH]1 (single isomer, unassigned) [Example 711, (R)- or (S)-N-(1-(3-fluoro-4-(1-methylcyclopropyl)phenyl)-2,2-dimethylpropyl)-2-methyl-6-oxo-1,6-dihydropyrimidine-4-carboxamide] |
| 62 nM | 67 nM | – | – | Cc1nc(C(=O)NC(C)(c2ccc(S(F)(F)(F)(F)F)cc2)C(C)C)cc(=O)[nH]1 (racemic) [Example 619, N-{1,2-dimethyl-1-[4-(pentafluoro-λ^6-sulfanyl)phenyl]propyl}-2-methyl-6-oxo-1,6-dihydropyrimidine-4-carboxamide] |
| – | – | 208 nM | 215 nM | Cc1nc(C(=O)NC(C)c2ccc3cc[nH]c3c2)cc(=O)[nH]1 (stereo not shown) [Example 303, N-(1-(1H-indol-6-yl)ethyl)-2-methyl-6-oxo-1,6-dihydropyrimidine-4-carboxamide] |
| 1.8 nM | 1.8 nM | 1 nM | – | C[C@@H](NC(=O)c1cc(=O)[nH]c(-c2ncccn2)n1)c1ccc(SC(F)(F)F)c(F)c1 [Example 260, N-[(1R)-1-{3-fluoro-4-[(trifluoromethyl)sulfanyl]phenyl}ethyl]-6-oxo-1,6-dihydro-2,2′-bipyrimidine-4-carboxamide] |
| 5.2 nM | 4.2 nM | – | – | CCc1nc(C(=O)NC2(c3ccc(OC(F)(F)F)c(F)c3)CC2)cc(=O)[nH]1 [Example 602] |
| 2.8 nM | 2.3 nM | – | – | COc1ccc(Cc2nc(C(=O)N[C@@H](c3ccc(S(F)(F)(F)(F)F)cc3)C3CC3)cc(=O)[nH]2)cc1 [Example 468, N-{(R)-cyclopropyl[4-(pentafluoro-λ^6-sulfanyl)phenyl]methyl}-2-(4-methoxybenzyl)-6-oxo-1,6-dihydropyrimidine-4-carboxamide] |
